Each compound was assayed on SNU398 cells (assay: Inhibition of cell proliferation (GI50, CellTiter-Glo) in SNU398 cells). Settings: Homo sapiens, SNU-398, 48 h, read-out: GI50 in Cancer Cells SNU398.
Type: cell-based
Description: (§1) T-47D, MX-1, SNU398 and HCT116 cells were grown and harvested as in Example 33. An aliquot of 90 μL of cells (4.4×10^4 cells/mL) was added to a well of a 96-well microtiter plate containing 5 μL of a 10% DMSO in RPMI-1640 media solution containing 10 nM to 100 μM of 5,7-dihydro-N-(3,5-dimethoxyphenyl)-2-(methylthio)furo[3,4-d]pyrimidin-4-amine (1 nM to 10 μM final) or related compounds. An aliquot of […] of cells was added to a well of a 96-well microtiter plate containing 5 μL of a 10% DMSO in RPMI-1640 media solution without compound as the control sample for maximal cell proliferation (LMax). The samples were mixed by agitation and then incubated at 37° C. for 48 h in a 5% CO2-95% humidity incubator. After incubation, the samples were removed from the incubator and 25 μL of CellTiter-Glo™ reagent (Promega) was added. The samples were mixed by agitation and incubated at room temperature for 10-15 min. Plates were then read using a luminescent plate reader (Model SPECTRAfluor Plus, Tecan) to give Ltest values.
(§2) Baseline for GI50 (dose for 50% inhibition of cell proliferation) of initial cell numbers was determined by adding an aliquot of 45 μL of cells or 45 μL of media, respectively, to wells of a 96-well microtiter plate containing 5 μL of a 10% DMSO in RPMI-1640 media solution. The samples were mixed by agitation and then incubated at 37° C. for 0.5 h in a 5% CO2-95% humidity incubator. After incubation, the samples were removed from the incubator and 25 μL of CellTiter-Glo™ reagent (Promega) was added. The samples were mixed by agitation and incubated at 37° C. for 10-15 min at room temperature in a 5% CO2-95% humidity incubator. Fluorescence was read as above, (LStart) defining luminescence for initial cell number used as baseline in GI50 determinations.
(§3) GI50 (dose for 50% inhibition of cell proliferation) is the concentration where [(LTest−LStart)/(LMax−LStart)]=0.5.

SMILES	GI50
COc1cc(Nc2nc([S+](C)[O-])nc3c2CCC3)cc(OC)c1 (stereo not shown) [Example 27, 6,7-Dihydro-N-(3,5-dimethoxyphenyl)-2-(methylsulfinyl)-5H-cyclopenta[d]pyrimidin-4-amine]	> 10 µM

Each compound was assayed on T-47D cells (assay: Inhibition of cell proliferation (GI50, CellTiter-Glo) in T-47D cells). Settings: Homo sapiens, T47D, 48 h, read-out: GI50 in Cancer Cells T47D.
Type: cell-based
Description: as §1, §2, §3

SMILES	GI50
COc1cc(Nc2nc([S+](C)[O-])nc3c2CCC3)cc(OC)c1 (stereo not shown) [Example 27, 6,7-Dihydro-N-(3,5-dimethoxyphenyl)-2-(methylsulfinyl)-5H-cyclopenta[d]pyrimidin-4-amine]	0.5 µM

The compounds below were run on human hepatocellular carcinoma cell line SNU398 (assay: Caspase cascade activation (Ac-DEVD-R110 fluorogenic substrate) in SNU398 cells). Settings: SNU-398, incubated 24 or 48 h (Table I), 0.016 to 10 μM final, read-out: Caspase Activation Potency EC50 SNU398.
Type: cell-based
Description: (§4) Human breast cancer cell line T-47D, human hepatocellular carcinoma cell line SNU398 and human colon carcinoma cell line HCT116 were grown according to media component mixtures designated by American Type Culture Collection+10% FCS (Invitrogen Corporation), in a 5% CO2-95% humidity incubator at 37° C. T-47D and H1299 cells were maintained at a cell density between 50 and 80% confluency at a cell density of 0.1 to 0.6×10^6 cells/mL. Cells were harvested at 600×g and resuspended at 0.65×10^6 cells/mL into appropriate media+10% FCS. An aliquot of 22.5 μL of cells was added to a well of a 384-well microtiter plate containing 2.5 μL of a 10% DMSO in RPMI-1640 media solution containing 0.16 to 100 μM of 5,7-dihydro-N-(3,5-dimethoxyphenyl)-2-(methylthio)furo[3,4-d]pyrimidin-4-amine or other test compound (0.016 to 10 μM final). An aliquot of 22.5 μL of cells was added to a well of a 384-well microtiter plate containing 2.5 μL of a 10% DMSO in RPMI-1640 media solution without test compound as the control sample. The samples were mixed by agitation and then incubated at 37° C. for 24 or 48 h in a 5% CO2-95% humidity incubator. After incubation, the samples were removed from the incubator and 25 μL of a solution containing 14 μM of N-(Ac-DEVD)-N′-ethoxycarbonyl-R110 (SEQ ID No.:1) fluorogenic substrate (Cytovia, Inc.; WO99/18856), 20% sucrose (Sigma), 20 mM DTT (Sigma), 200 mM NaCl (Sigma), 40 mM Na PIPES buffer pH 7.2 (Sigma), and 500 µg/mL lysolecithin (Calbiochem) was added. The samples were mixed by agitation and incubated at room temperature. Using a fluorescent plate reader (Model SPECTRAfluor Plus, Tecan), an initial reading (T=0) was made approximately 1-2 min after addition of the substrate solution, employing excitation at 485 nm and emission at 530 nm, to determine the background fluorescence of the control sample. After the 3 h incubation, the samples were read for fluorescence as above (T=3 h).
(§5) The Relative Fluorescence Unit values (RFU) were used to calculate the sample readings as follows: RFU(T=3h)−Control RFU(T=0)=Net RFU(T=3h)
(§6) The activity of caspase cascade activation was determined by the ratio of the net RFU value for 5,7-dihydro-N-(3,5-dimethoxyphenyl)-2-(methylthio)furo[3,4-d]pyrimidin-4-amino or other test compound to that of control samples. The EC50 (nM) was determined by a sigmoidal dose-response calculation (Prism 3.0, GraphPad Software Inc.).

SMILES	EC50
COc1cc(Nc2nc([S+](C)[O-])nc3c2CCC3)cc(OC)c1 (stereo not shown) [Example 27, 6,7-Dihydro-N-(3,5-dimethoxyphenyl)-2-(methylsulfinyl)-5H-cyclopenta[d]pyrimidin-4-amine]	> 10 µM

Each compound was assayed on human colon carcinoma cell line HCT116 (assay: Caspase cascade activation (Ac-DEVD-R110 fluorogenic substrate) in HCT116 cells). Settings: HCT-116, incubated 24 or 48 h (Table I), 0.016 to 10 μM final, read-out: Caspase Activation Potency EC50 HCT116.
Type: cell-based
Description: as §4, §5, §6

SMILES	EC50
COc1cc(Nc2nc([S+](C)[O-])nc3c2CCC3)cc(OC)c1 (stereo not shown) [Example 27, 6,7-Dihydro-N-(3,5-dimethoxyphenyl)-2-(methylsulfinyl)-5H-cyclopenta[d]pyrimidin-4-amine]	> 10 µM

The compounds below were run on MX-1 cells (assay: Inhibition of cell proliferation (GI50, CellTiter-Glo) in MX-1 cells). Settings: Homo sapiens, MX1, 48 h, read-out: GI50 in Cancer Cells MX1.
Type: cell-based
Description: as §1, §2, §3

SMILES	GI50
COc1cc(Nc2nc([S+](C)[O-])nc3c2CCC3)cc(OC)c1 (stereo not shown) [Example 27, 6,7-Dihydro-N-(3,5-dimethoxyphenyl)-2-(methylsulfinyl)-5H-cyclopenta[d]pyrimidin-4-amine]	0.6 µM

These compounds were tested on HCT116 cells (assay: Inhibition of cell proliferation (GI50, CellTiter-Glo) in HCT116 cells). Settings: Homo sapiens, HCT-116, 48 h, read-out: GI50 in Cancer Cells HCT116.
Type: cell-based
Description: as §1, §2, §3

SMILES	GI50
COc1cc(Nc2nc([S+](C)[O-])nc3c2CCC3)cc(OC)c1 (stereo not shown) [Example 27, 6,7-Dihydro-N-(3,5-dimethoxyphenyl)-2-(methylsulfinyl)-5H-cyclopenta[d]pyrimidin-4-amine]	> 10 µM

These compounds were tested on Human breast cancer cell line T-47D (assay: Caspase cascade activation (Ac-DEVD-R110 fluorogenic substrate) in T-47D cells). Settings: T47D, T-47D, incubated 24 or 48 h (Table I), 0.016 to 10 μM final, read-out: Caspase Activation Potency EC50 T-47D.
Type: cell-based
Description: as §4, §5, §6

SMILES	EC50
COc1cc(Nc2nc([S+](C)[O-])nc3c2CCC3)cc(OC)c1 (stereo not shown) [Example 27, 6,7-Dihydro-N-(3,5-dimethoxyphenyl)-2-(methylsulfinyl)-5H-cyclopenta[d]pyrimidin-4-amine]	0.164 µM

— patent US20080113946A1, “N-aryl-5,7-dihydrofuro[3,4-d]pyrimidin-4-amines and analogs as activators of caspases and inducers of apoptosis and the use thereof” (Cyntovia, Inc., priority 2006, published 2008)
